Experimental data taken from patent publication US11919886B2, “4,9-dioxo-4,9-dihydronaphtho[2,3-B]furan-3-carboxamide derivatives and uses thereof for treating proliferative diseases and infectious diseases” (Academia Sinica, priority 2016, dated 2024).
Values after ≈ are worked out from the molar mass of the structure shown. Where two headings read alike, the source gives them in different places.

Experiments:
[1] = system: Streptococcus gallolyticus subsp. gallolyticus; experiment: MIC, broth micro dilution method; type: cell-based; conditions: strain ATCC43143, S. bovis
H1975 cells [2] = experiment: Double thymidine block, S phase progression by flow cytometry; type: cell-based, human; conditions: H1975, release from double thymidine block
Description: To evaluate the effects of compound Ion a single round of DNA replication in a cell cycle, H1975 cells were synchronized using a double thymidine block followed by release with DMSO or compound 1-containing medium for 2 to 14 hours. Exemplary results are shown in Panel (C) of FIG. 2. H1975 cells were grown to 60-70% confluence. Then, 2 mM thymidine (Sigma) was added to the cells and incubated for 17 hours. The cells were then washed, and fresh serum-containing medium was added. After 10 hours, thymidine was added again, and the cells were incubated for 17 hours; the cells were then washed with PBS, replaced with fresh serum-containing medium, and the data were collected at the indicated time points. Through flow cytometry analysis, the control cells were observed as synchronized in the G0-G1 phase from 0 hours, increased in the S phase from 4 to 6 hours, and finally progressed to the G2 phase after 8 hours. However, many of the compound 1-treated cells remained in the S phase at all time points. (Panel (C) of FIG. 2). A double thymidine block was performed and the data were collected at the indicated time points. Compared to DMSO, compound 1-treated H1975 cells required more time for the S phase (approximately 4 hours).

[3] = system: Streptococcus gallolyticus subsp. pasteurianus; experiment: MIC, broth micro dilution method; type: cell-based; conditions: strain ATCC43144, S. bovis
[4] = system: PC9 (human lung adenocarcinoma cells, EGFR del 19 mutation and sensitive to gefitinib); experiment: SRB cytotoxicity assay, PC9; conditions: 72 h
[5] = system: subcutaneous H1975 tumors; experiment: H1975 xenograft tumor growth in athymic nude mice (compound 1); type: in vivo; conditions: for average tumor size: day 27
Description: Panel (A): The structure of compound 1. Panel(B): A chart showing exemplary results for the cytotoxicity assay of Compound 1-treated cancer cells for 72 hours. […] Panel (C): Photos showing the different tumor sizes and TUNEL assay results between DMSO control and Compound 1-treated mice. H1975 (3×10^6) cells were subcutaneously injected into male nu/nu mice, and daily treated intraperitoneally with Compound I at indicated dose or DMSO for 4 weeks. During the treatment, tumor size and body weights were measured every 3 to 4 days; and the histology was confirmed by H&E staining (left lower panel of panel (C).
Exemplary results are shown in Panel (C) of FIG. 1. […] (Panel (C) of FIG. 1). In addition, the body weight of the mice was calculated when the tumor size was measured. Serum was also collected, and biological analysis in vitro was performed. […] Inhibition of tumor growth of Compound 1 with low cytotoxicity in vivo was observed.

H1975 cells [6] = experiment: BrdU incorporation (DNA replication) by flow cytometry; type: cell-based, human; conditions: H1975, treated 12, 24 or 48 h
Description: Panel (A): A chart showing DNA replication in Compound 1-treated H1975 cells was inhibited. DNA histograms (BrdU incorporation vs. DNA content) of DMSO or compound 1-treated H1975 cells are shown at 12 to 48 hours. The H1975 cells were BrdU-pulsed (BD Pharmingen™ BrdU Flow Kit Staining) and analyzed by flow cytometry. Panel (B): A chart showing compound 1 decreased the replication fork number. The replication forks were analyzed by immunofluorescence staining with anti-MCM2 antibodies (see row labeled “MCM2” and “Merge with DAPI”) and DAPI (see row labeled “Merge with DAPI”). The quantification was made by counting signals obtained with the anti-MCM2 antibody using Image J software. (n=5 cells per group; original magnification, ×1000). Panel (C): A chart showing compound 1-treated H1975 cells have a prolonged S phase. A double thymidine block was performed, and the data were collected at the indicated time points.
To evaluate the effects on DNA replication of Compound 1, the levels of BrdU (5′-bromo′-2′-deoxyuridine) incorporation were examined. Exemplary results are shown in Panel (A) of FIG. 2. […] The content of BrdU was assessed using fluorescent antibodies. […] The samples were analyzed in a FACS caliber flow cytometer (Becton Dickinson, Sweden) for dot plot histogram analysis (BrdU incorporation vs. DNA content).

Pseudomonas aeruginosa = experiment: MIC, broth micro dilution method; type: cell-based
Staphylococcus aureus = experiment: MIC, broth micro dilution method; type: cell-based

For Cc1oc2c(c1C(=O)NCCCn1ccnc1)C(=O)c1ccccc1C2=O [Compound 1, N-(3-(1H-Imidazol-1-yl)propyl)-2-methyl-4,9-dioxo-4,9-dihydronaphtho [2,3-b]furan-3-carboxamide], the MIC ([1]; read-out: MIC (μg/ml) 100%) was 4 µg/mL (≈ 11 µM), the MIC ([1]; read-out: MIC (μg/ml) 50%) was 2 µg/mL (≈ 5.5 µM) and the “more time required for the S phase compared to DMSO” value (H1975 cells [2]) was “approximately 4 hours”. For the same molecule, the MIC ([3]; read-out: MIC (μg/ml) 100%) was 4 µg/mL (≈ 11 µM), the MIC ([3]; read-out: MIC (μg/ml) 50%) was 2 µg/mL (≈ 5.5 µM) and the IC50 [4] was 37 nM. The average tumor size ([5]; 1 mg/kg daily intraperitoneal) was 701.2±196.5 mm^3, the “body weight and serum biological analysis, control group vs compound treatment group” value ([5]; 1 mg/kg or 4 mg/kg daily intraperitoneal, 4 weeks) was “Few differences” and the average tumor size ([5]; 4 mg/kg daily intraperitoneal) was 518.0±93.0 mm^3. The “percentages of BrdU-positive cells vs DMSO control” value (H1975 cells [6]) was “lower than those in the DMSO control group”, the MIC (Pseudomonas aeruginosa; read-out: MIC (μg/ml) 100%, strain ATCC27853, gram negative) was over 32 µg/mL and the MIC (Pseudomonas aeruginosa; strain ATCC27853, gram negative, read-out: MIC (μg/ml) 50%) was over 32 µg/mL. The MIC (Staphylococcus aureus; ATCC 2921 / MSSA, read-out: MIC (μg/ml) 100%, strain ATCC2921 3, MSSA) was 4 µg/mL (≈ 11 µM), the MIC (Staphylococcus aureus; ATCC 2921 / MSSA, strain ATCC2921 3, MSSA, read-out: MIC (μg/ml) 50%) was 1 µg/mL (≈ 2.75 µM) and the MIC (Staphylococcus aureus; ATCC 12598 / MSSA, read-out: MIC (μg/ml) 100%, strain ATCC12598, MSSA) was 4 µg/mL (≈ 11 µM). For the same molecule, the MIC (Staphylococcus aureus; ATCC 12598 / MSSA, strain ATCC12598, MSSA, read-out: MIC (μg/ml) 50%) was 0.5 µg/mL (≈ 1.38 µM), the MIC (Staphylococcus aureus; ATCC 25923 / MSSA, read-out: MIC (μg/ml) 100%, strain ATCC25923, MSSA) was 4 µg/mL (≈ 11 µM) and the MIC (Staphylococcus aureus; ATCC 25923 / MSSA, strain ATCC25923, MSSA, read-out: MIC (μg/ml) 50%) was 2 µg/mL (≈ 5.5 µM). It also gave an MIC (Staphylococcus aureus; ATCC 33592 / MRSA, read-out: MIC (μg/ml) 100%, strain ATCC33592, MRSA (SCCmec III)) of 1 µg/mL (≈ 2.75 µM), an MIC (Staphylococcus aureus; ATCC 33592 / MRSA, strain ATCC33592, MRSA (SCCmec III), read-out: MIC (μg/ml) 50%) of 0.5 µg/mL (≈ 1.38 µM) and an MIC (Staphylococcus aureus; ATCC 49476 / MRSA, read-out: MIC (μg/ml) 100%, strain ATCC49476, MRSA (SCCmec III)) of 1 µg/mL (≈ 2.75 µM). The MIC (Staphylococcus aureus; ATCC 49476 / MRSA, strain ATCC49476, MRSA (SCCmec III), read-out: MIC (μg/ml) 50%) was 0.5 µg/mL (≈ 1.38 µM), the MIC (Staphylococcus aureus; MRSA, range over MRSA strains, broth micro dilution, read-out: MIC) was 1 to 4 µg/mL (≈ 2.75 to 11 µM) and the MIC (Staphylococcus aureus; MRSA, read-out: MIC (μg/ml) 100%, strain NTUH-1-2868, MRSA (SCCmec III, ST239, FA-R), clinical isolate) was 1 µg/mL (≈ 2.75 µM). The MIC (Staphylococcus aureus; MRSA, read-out: MIC (μg/ml) 100%, strain NTUH-104-2, MRSA (SCCmec VT, ST45), clinical isolate) was 1 µg/mL (≈ 2.75 µM), the MIC (Staphylococcus aureus; MRSA, read-out: MIC (μg/ml) 100%, strain NTUH-406-2, MRSA (SCCmec IV, spa type t008), clinical isolate) was 4 µg/mL (≈ 11 µM) and the MIC (Staphylococcus aureus; MRSA, read-out: MIC (μg/ml) 100%, strain NTUH-560, MRSA (SCCmec II, GM-S), clinical isolate) was 4 µg/mL (≈ 11 µM). The MIC (Staphylococcus aureus; MRSA, read-out: MIC (μg/ml) 100%, strain NTUH-2102, MRSA (SCCmec II, ST5, FA-S), clinical isolate) was 4 µg/mL (≈ 11 µM), the MIC (Staphylococcus aureus; MRSA, read-out: MIC (μg/ml) 100%, strain NTUH-2417, MRSA (SCCmec III, SXT-S), clinical isolate) was 1 µg/mL (≈ 2.75 µM) and the MIC (Staphylococcus aureus; MRSA, read-out: MIC (μg/ml) 100%, strain NTUH-2643, MRSA (SCCmec IV, spa type to 15), clinical isolate) was 4 µg/mL (≈ 11 µM). It also gave an MIC (Staphylococcus aureus; MRSA, read-out: MIC (μg/ml) 100%, strain NTUH-2967, MRSA (SCCmec VT, ST1), clinical isolate) of 4 µg/mL (≈ 11 µM), an MIC (Staphylococcus aureus; MRSA, read-out: MIC (μg/ml) 100%, strain NTUH-4400, MRSA (SCCmec II, ST5, FA-R), clinical isolate) of 2 µg/mL (≈ 5.5 µM) and an MIC (Staphylococcus aureus; MRSA, read-out: MIC (μg/ml) 100%, strain NTUH-4578, MRSA (SCCmec IV, ST59), clinical isolate) of 4 µg/mL (≈ 11 µM). It also gave an MIC (Staphylococcus aureus; MRSA, read-out: MIC (μg/ml) 100%, strain NTUH-8038, MRSA (SCCmec IV, spa type t189), clinical isolate) of 4 µg/mL (≈ 11 µM), an MIC (Staphylococcus aureus; MRSA, read-out: MIC (μg/ml) 100%, strain NTUH-9383, MRSA (SCCmec III, ST239, FA-R), clinical isolate) of 1 µg/mL (≈ 2.75 µM) and an MIC (Staphylococcus aureus; MRSA, read-out: MIC (μg/ml) 100%, strain PM1, MRSA (SCCmec VT, ST59), clinical isolate) of 4 µg/mL (≈ 11 µM). It also gave an MIC (Staphylococcus aureus; MRSA, read-out: MIC (μg/ml) 100%, strain TSHR17, MRSA (SCCmec VT)) of 4 µg/mL (≈ 11 µM), an MIC (Staphylococcus aureus; MRSA, strain NTUH-1-2868, MRSA (SCCmec III, ST239, FA-R), clinical isolate, read-out: MIC (μg/ml) 50%) of 0.5 µg/mL (≈ 1.38 µM) and an MIC (Staphylococcus aureus; MRSA, strain NTUH-104-2, MRSA (SCCmec VT, ST45), clinical isolate, read-out: MIC (μg/ml) 50%) of 0.5 µg/mL (≈ 1.38 µM). For the same molecule, the MIC (Staphylococcus aureus; MRSA, strain NTUH-406-2, MRSA (SCCmec IV, spa type t008), clinical isolate, read-out: MIC (μg/ml) 50%) was 0.5 µg/mL (≈ 1.38 µM), the MIC (Staphylococcus aureus; MRSA, strain NTUH-560, MRSA (SCCmec II, GM-S), clinical isolate, read-out: MIC (μg/ml) 50%) was 1 µg/mL (≈ 2.75 µM) and the MIC (Staphylococcus aureus; MRSA, strain NTUH-2102, MRSA (SCCmec II, ST5, FA-S), clinical isolate, read-out: MIC (μg/ml) 50%) was 1 µg/mL (≈ 2.75 µM). For the same molecule, the MIC (Staphylococcus aureus; MRSA, strain NTUH-2417, MRSA (SCCmec III, SXT-S), clinical isolate, read-out: MIC (μg/ml) 50%) was 0.5 µg/mL (≈ 1.38 µM), the MIC (Staphylococcus aureus; MRSA, strain NTUH-2643, MRSA (SCCmec IV, spa type to 15), clinical isolate, read-out: MIC (μg/ml) 50%) was 1 µg/mL (≈ 2.75 µM) and the MIC (Staphylococcus aureus; MRSA, strain NTUH-2967, MRSA (SCCmec VT, ST1), clinical isolate, read-out: MIC (μg/ml) 50%) was 1 µg/mL (≈ 2.75 µM). It also gave an MIC (Staphylococcus aureus; MRSA, strain NTUH-4400, MRSA (SCCmec II, ST5, FA-R), clinical isolate, read-out: MIC (μg/ml) 50%) of 1 µg/mL (≈ 2.75 µM), an MIC (Staphylococcus aureus; MRSA, strain NTUH-4578, MRSA (SCCmec IV, ST59), clinical isolate, read-out: MIC (μg/ml) 50%) of 1 µg/mL (≈ 2.75 µM) and an MIC (Staphylococcus aureus; MRSA, strain NTUH-8038, MRSA (SCCmec IV, spa type t189), clinical isolate, read-out: MIC (μg/ml) 50%) of 1 µg/mL (≈ 2.75 µM). For the same molecule, the MIC (Staphylococcus aureus; MRSA, strain NTUH-9383, MRSA (SCCmec III, ST239, FA-R), clinical isolate, read-out: MIC (μg/ml) 50%) was 0.5 µg/mL (≈ 1.38 µM), the MIC (Staphylococcus aureus; MRSA, strain PM1, MRSA (SCCmec VT, ST59), clinical isolate, read-out: MIC (μg/ml) 50%) was 1 µg/mL (≈ 2.75 µM) and the MIC (Staphylococcus aureus; MRSA, strain TSHR17, MRSA (SCCmec VT), read-out: MIC (μg/ml) 50%) was 0.5 µg/mL (≈ 1.38 µM).
